Results as given in ChEMBL document CHEMBL6121063, “Identification of a Potent and Selective CDK9 Degrader as a Targeted Therapeutic Option for the Treatment of Small-Cell Lung Cancer” (J Med Chem, 2025).
Active and inactive are the calls of the source. The calls are words filed in the database; no cut-off is given here.

Experiments:
[1] = molecular target: Cyclin-dependent kinase 1/cyclin B1 (Homo sapiens) (UniProt P06493+P14635); assay: Inhibition of CDK1/cyclin B1 (unknown origin) at 10 nM relative to control; assay type: protein-complex assay
Chain of Cyclin-dependent kinase 1/cyclin B1 (Homo sapiens) (P06493 whole entry, looked up): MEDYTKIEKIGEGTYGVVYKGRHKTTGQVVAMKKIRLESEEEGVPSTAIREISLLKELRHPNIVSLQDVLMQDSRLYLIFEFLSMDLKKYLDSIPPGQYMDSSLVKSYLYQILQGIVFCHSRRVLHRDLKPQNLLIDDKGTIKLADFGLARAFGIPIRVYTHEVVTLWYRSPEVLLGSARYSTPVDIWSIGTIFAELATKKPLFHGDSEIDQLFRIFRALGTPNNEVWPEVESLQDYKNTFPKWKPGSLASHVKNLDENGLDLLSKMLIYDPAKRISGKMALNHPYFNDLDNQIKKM
Chain of Cyclin-dependent kinase 1/cyclin B1 (Homo sapiens) (P14635 whole entry, looked up): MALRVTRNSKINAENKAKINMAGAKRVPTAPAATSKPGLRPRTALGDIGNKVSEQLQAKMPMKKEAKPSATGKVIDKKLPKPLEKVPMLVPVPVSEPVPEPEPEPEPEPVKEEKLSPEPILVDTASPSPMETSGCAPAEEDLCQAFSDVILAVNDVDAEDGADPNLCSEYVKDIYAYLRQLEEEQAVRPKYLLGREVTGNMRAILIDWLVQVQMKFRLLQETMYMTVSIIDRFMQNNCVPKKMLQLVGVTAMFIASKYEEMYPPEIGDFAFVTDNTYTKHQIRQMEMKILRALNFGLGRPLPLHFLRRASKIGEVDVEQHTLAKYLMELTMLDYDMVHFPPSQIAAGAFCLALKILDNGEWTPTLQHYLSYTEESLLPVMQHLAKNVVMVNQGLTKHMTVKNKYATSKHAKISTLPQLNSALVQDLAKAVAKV

NCI-H446 [2] = assay: Antitumor activity against human NCI-H446 cells xenografted in female NU-NU mouse model assessed as increase in cleaved caspase-3 expression in tumor at 12.5 to 25 mg/kg, po administered once daily for 15 days by immunohistochemical staining based analysis; assay type: functional, organism-based; conditions: dose 12.5-25 mg/kg, time 15.0 day
[3] = molecular target: T1, Protein cereblon/Cyclin-dependent kinase 9 (Homo sapiens, UniProt P50750+Q96SW2); assay: In vivo PROTAC activity at CRBN/CDK9 in female BALB/c nude mouse xenografted with human NCI-H446 cells assessed as induction of CDK9 degradation in tumor at 25 mg/kg, po measured after 24 hrs by Western blot analysis; assay type: functional, organism-based
T1 sequence (P50750 whole entry, looked up): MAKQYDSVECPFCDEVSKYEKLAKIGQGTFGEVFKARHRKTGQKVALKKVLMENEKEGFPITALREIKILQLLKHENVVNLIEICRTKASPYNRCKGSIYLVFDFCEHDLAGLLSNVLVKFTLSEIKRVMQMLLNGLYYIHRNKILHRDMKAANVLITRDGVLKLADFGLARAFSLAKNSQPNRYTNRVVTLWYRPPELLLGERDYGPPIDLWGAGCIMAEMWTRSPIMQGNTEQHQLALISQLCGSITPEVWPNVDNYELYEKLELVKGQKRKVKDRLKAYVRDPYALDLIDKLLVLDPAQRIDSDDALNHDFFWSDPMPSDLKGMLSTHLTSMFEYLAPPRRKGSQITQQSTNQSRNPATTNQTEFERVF
T1 sequence (Q96SW2 whole entry, looked up): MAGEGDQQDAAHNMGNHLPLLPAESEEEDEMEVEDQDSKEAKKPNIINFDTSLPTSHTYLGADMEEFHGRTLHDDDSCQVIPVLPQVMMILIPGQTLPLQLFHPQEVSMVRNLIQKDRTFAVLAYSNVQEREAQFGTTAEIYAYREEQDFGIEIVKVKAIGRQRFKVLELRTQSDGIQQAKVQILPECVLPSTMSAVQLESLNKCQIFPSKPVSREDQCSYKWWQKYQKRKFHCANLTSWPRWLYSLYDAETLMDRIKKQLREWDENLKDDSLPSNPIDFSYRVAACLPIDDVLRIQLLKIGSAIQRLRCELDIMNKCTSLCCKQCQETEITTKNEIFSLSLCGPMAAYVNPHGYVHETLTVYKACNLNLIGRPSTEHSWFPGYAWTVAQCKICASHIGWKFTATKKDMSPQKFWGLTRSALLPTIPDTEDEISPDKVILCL

NCI-H446 [4] = assay: Downregulation of CDK9 protein level in human NCI-H446 cells at 10 nM incubated for 3 hrs by quantitative proteomic analysis; assay type: functional, cell-based
[5] = molecular target: CDK6/cyclin D1 (Homo sapiens) (UniProt P24385+Q00534); assay: Inhibition of CDK6/cyclin D1 (unknown origin) at 10 nM relative to control; assay type: protein-complex assay
[6] = molecular target: CDK6/cyclin D3 (Homo sapiens) (UniProt P30281+Q00534); assay: Inhibition of CDK6/cyclin D3 (unknown origin) at 10 nM relative to control; assay type: protein-complex assay
[7] = molecular target: T1, Protein cereblon/Cyclin-dependent kinase 9; assay: PROTAC activity at CRBN/CDK9 in human NCI-H69 cells assessed as induction of CDK9 degradation at 10 nM by Western blot analysis relative to control; assay type: cell-based
[8] = molecular target: CDK2/Cyclin A2 (Homo sapiens) (UniProt P24941+P20248); conditions: dose 10.0 nM
[9] = molecular target: T1, Protein cereblon/Cyclin-dependent kinase 9; assay: PROTAC activity at CRBN/CDK9 in human NCI-H446 cells assessed as increase in CDK9 ubiquitination preincubated with MG132 for 2 hrs followed by compound addition and measured after 3 hrs by co-immunoprecipitation analysis; assay type: cell-based
NCI-H446 [10] = assay: Induction of apoptosis in human NCI-H446 cells incubated for 36 hrs by Annexin V-FITC/PI staining based flow cytometric analysis; assay type: functional, cell-based; conditions: dose 1-8 nM
NCI-H69 [11] = assay: Induction of apoptosis in human NCI-H69 cells assessed as decrease in MCL-1 expression incubated for 36 hrs by Western blot analysis; assay type: functional, cell-based
NCI-H446 [12] = assay: Cell cycle arrest in human NCI-H446 cells assessed as increase in G1 phase population incubated for 36 hrs by PI staining based flow cytometric analysis; assay type: functional; conditions: dose 0.5-2 nM
NCI-H69 [13] = assay: Induction of apoptosis in human NCI-H69 cells assessed as increase in p53 level incubated for 36 hrs by Western blot analysis; assay type: functional, cell-based
DMS-114 [14] = assay: Inhibition of cell invasion in human DMS-114 cells assessed as decrease in number of cells passing through upper chamber at 2to 4 nM incubated for 48 hrs by crystal violet staining based microscopic analysis; assay type: functional
[15] = molecular target: T1, Protein cereblon/Cyclin-dependent kinase 9; assay: PROTAC activity at CRBN/CDK9 in human NCI-H69 cells assessed as induction of CDK9 degradation at 10 nM by Western blot analysis; assay type: cell-based; conditions: time 0.5-12 hrs
NCI-H69 [16] = assay: Induction of apoptosis in human NCI-H69 cells assessed as decrease in BCL-2 expression incubated for 36 hrs by Western blot analysis; assay type: functional, cell-based
DMS-53 = assay: Inhibition of cell invasion in human DMS-53 cells assessed as decrease in number of cells passing through upper chamber at 2to 4 nM incubated for 48 hrs by crystal violet staining based microscopic analysis; assay type: functional
[17] = molecular target: CDK9/cyclin T1 (Homo sapiens) (UniProt O60563+P50750); assay: Inhibition of CDK9/Cyclin T1 (unknown origin) at 10 nM relative to control; assay type: protein-complex assay
[18] = molecular target: T1, Protein cereblon/Cyclin-dependent kinase 9; assay: PROTAC activity at CRBN/CDK9 in human NCI-H69 cells assessed as induction of CDK9 degradation preincubated with AT-7519 for 2 hrs followed by compound addition and measured after 3 hrs by Western blot analysis; assay type: cell-based
NCI-H69 [19] = assay: Downregulation of CDK9 protein level in human NCI-H69 cells at 1 to 10 nM incubated for 8 hrs by Western blot analysis; assay type: functional, cell-based; conditions: dose 1-10 nM
[20] = molecular target: T1, Protein cereblon/Cyclin-dependent kinase 9; assay: PROTAC activity at CRBN/CDK9 in human NCI-H69 cells assessed as induction of CDK9 degradation preincubated with thalidomide for 2 hrs followed by compound addition and measured after 3 hrs by Western blot analysis; assay type: cell-based
[21] = molecular target: T1, Protein cereblon/Cyclin-dependent kinase 9; assay: PROTAC activity at CRBN/CDK9 in human NCI-H446 cells assessed as induction of CDK9 degradation by measuring reduction in half-life incubated upto 24 hrs in presence of cycloheximide by Western blot analysis; assay type: cell-based
[22] = molecular target: T1, Protein cereblon/Cyclin-dependent kinase 9; assay: PROTAC activity at CRBN/CDK9 in human NCI-H69 cells assessed as induction of CDK9 degradation at 10 nM measured within 3 hrs by Western blot analysis; assay type: cell-based
[23] = molecular target: CDK1/Cyclin E (Homo sapiens) (UniProt P06493+P24864); assay: Inhibition of CDK1/cyclin E1 (unknown origin) at 10 nM relative to control; assay type: protein-complex assay
Chain of CDK1/Cyclin E (Homo sapiens) (P06493 whole entry, looked up): as the sequence (P06493 whole entry, looked up) above
Chain of CDK1/Cyclin E (Homo sapiens) (P24864 whole entry, looked up): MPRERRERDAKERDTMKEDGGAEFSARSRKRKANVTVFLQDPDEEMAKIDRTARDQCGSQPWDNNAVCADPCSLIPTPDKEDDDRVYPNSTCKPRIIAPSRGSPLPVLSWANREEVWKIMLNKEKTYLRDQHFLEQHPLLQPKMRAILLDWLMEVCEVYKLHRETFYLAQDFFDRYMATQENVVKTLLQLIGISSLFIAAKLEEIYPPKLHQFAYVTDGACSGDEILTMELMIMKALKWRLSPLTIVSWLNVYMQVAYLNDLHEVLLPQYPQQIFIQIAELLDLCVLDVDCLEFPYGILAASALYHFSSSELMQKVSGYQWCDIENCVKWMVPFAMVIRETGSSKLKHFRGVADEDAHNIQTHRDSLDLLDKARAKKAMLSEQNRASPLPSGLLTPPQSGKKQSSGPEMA

[24] = molecular target: T2, Cyclin-dependent kinase 5/CDK5 activator 1 (Homo sapiens) (UniProt Q00535+Q15078); assay: Inhibition of CDK5/p35NCK (unknown origin) at 10 nM relative to control; assay type: protein-complex assay
T2 sequence (Q00535 whole entry): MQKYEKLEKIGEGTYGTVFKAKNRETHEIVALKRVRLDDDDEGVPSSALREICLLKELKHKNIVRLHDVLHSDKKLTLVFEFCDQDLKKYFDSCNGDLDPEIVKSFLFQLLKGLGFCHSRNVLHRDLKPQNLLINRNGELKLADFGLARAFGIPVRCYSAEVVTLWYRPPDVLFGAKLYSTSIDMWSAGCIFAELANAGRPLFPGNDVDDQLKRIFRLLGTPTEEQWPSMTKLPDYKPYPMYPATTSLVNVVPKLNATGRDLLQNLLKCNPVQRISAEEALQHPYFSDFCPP
T2 sequence (Q15078 99-307 partner limits assumed): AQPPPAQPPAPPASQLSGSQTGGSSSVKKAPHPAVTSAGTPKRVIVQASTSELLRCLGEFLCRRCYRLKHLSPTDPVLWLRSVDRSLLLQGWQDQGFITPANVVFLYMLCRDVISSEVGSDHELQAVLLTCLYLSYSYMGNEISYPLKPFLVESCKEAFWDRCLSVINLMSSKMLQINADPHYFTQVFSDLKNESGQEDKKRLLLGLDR

[25] = molecular target: Cyclin-dependent kinase 9 (Homo sapiens) (UniProt P50750); assay: Inhibition of CDK9-related signaling in human NCI-H69 cells assessed as decrease in RNA polymerase II phosphorylation at Ser5 residue at 0.5 to 10 nM incubated for 24 hrs by Western blot analysis; assay type: cell-based; conditions: dose 0.5-10 nM
Chain of Cyclin-dependent kinase 9 (Homo sapiens) (P50750 whole entry): as the sequence (P50750 whole entry, looked up) above

[26] = molecular target: Cyclin-dependent kinase 13/Cyclin-K (Homo sapiens) (UniProt Q14004+O75909); assay: Inhibition of CDK13/Cyclin K (unknown origin) at 10 nM relative to control; assay type: protein-complex assay
Chain of Cyclin-dependent kinase 13/Cyclin-K (Homo sapiens) (O75909 whole entry, looked up): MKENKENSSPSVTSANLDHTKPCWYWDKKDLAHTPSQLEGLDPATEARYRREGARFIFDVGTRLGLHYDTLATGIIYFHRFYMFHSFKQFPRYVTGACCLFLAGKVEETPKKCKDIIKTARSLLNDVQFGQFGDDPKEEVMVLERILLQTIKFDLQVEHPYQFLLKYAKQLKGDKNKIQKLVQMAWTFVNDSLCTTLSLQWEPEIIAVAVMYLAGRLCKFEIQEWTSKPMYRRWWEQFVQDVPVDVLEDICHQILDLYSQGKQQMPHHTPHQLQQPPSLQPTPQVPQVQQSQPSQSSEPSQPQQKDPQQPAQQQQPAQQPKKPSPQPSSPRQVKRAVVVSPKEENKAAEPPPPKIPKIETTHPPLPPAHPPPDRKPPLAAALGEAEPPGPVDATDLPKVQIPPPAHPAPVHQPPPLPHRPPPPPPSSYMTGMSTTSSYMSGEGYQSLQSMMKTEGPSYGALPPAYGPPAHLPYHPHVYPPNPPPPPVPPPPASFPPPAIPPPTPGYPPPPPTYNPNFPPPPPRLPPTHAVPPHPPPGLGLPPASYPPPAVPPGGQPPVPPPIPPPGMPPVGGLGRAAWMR
Chain of Cyclin-dependent kinase 13/Cyclin-K (Homo sapiens) (Q14004 whole entry, looked up): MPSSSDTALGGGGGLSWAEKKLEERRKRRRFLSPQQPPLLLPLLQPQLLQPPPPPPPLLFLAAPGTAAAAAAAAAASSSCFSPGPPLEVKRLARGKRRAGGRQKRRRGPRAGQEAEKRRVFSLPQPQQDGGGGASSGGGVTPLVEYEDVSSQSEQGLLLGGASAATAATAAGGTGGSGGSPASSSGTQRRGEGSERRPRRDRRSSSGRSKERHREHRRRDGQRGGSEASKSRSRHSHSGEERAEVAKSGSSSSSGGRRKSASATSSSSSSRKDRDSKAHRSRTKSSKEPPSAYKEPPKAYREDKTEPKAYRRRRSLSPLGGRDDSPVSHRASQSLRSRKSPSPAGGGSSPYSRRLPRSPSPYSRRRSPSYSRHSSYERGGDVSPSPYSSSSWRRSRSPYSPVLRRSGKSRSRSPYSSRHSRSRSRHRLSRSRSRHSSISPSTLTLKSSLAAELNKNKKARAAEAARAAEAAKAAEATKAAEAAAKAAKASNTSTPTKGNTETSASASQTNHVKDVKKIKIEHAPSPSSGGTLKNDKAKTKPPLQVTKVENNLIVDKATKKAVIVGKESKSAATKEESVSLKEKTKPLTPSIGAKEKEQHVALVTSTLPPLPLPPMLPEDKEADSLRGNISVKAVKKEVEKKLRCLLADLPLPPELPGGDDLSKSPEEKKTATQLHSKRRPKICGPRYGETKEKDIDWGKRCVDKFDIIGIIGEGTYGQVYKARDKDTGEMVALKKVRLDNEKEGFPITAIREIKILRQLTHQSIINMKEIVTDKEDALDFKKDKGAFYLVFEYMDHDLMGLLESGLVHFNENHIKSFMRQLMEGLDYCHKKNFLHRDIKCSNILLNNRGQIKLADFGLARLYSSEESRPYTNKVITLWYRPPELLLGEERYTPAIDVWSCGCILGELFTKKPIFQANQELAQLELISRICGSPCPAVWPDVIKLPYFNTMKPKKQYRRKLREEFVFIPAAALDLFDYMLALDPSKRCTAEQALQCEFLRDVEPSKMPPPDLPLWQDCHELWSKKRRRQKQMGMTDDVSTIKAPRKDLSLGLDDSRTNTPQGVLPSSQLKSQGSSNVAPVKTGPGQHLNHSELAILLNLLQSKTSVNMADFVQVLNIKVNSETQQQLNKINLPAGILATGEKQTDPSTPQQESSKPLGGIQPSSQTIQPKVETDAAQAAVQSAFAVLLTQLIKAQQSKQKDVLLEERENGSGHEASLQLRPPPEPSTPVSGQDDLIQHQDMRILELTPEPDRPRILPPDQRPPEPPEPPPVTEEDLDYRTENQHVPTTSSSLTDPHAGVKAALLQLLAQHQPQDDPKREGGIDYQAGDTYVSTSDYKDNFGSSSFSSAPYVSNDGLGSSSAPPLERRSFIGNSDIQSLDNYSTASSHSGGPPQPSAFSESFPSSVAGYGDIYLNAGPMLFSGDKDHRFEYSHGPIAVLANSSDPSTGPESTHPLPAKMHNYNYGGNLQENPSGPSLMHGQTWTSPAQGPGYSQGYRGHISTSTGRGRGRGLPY

DMS-114 [27] = assay: Inhibition of colony formation in human DMS-114 cells at 2 to 4 nM incubated for 8 days by crystal violet staining based analysis; assay type: functional, cell-based; conditions: dose 2-4 nM, time 8.0 day
[28] = molecular target: Cyclin-Y/Cyclin-dependent kinase 16 (Homo sapiens) (UniProt Q00536+Q8ND76); conditions: dose 10.0 nM
[29] = molecular target: T2, Cyclin-dependent kinase 5/CDK5 activator 1 (Homo sapiens); assay: Inhibition of CDK5/p25NCK (unknown origin) at 10 nM relative to control; assay type: protein-complex assay
[30] = molecular target: CDK4/Cyclin D3 (Homo sapiens) (UniProt P11802+P30281); assay: Inhibition of CDK4/cyclin D3 (unknown origin) at 10 nM relative to control; assay type: protein-complex assay
NCI-H446 [31] = assay: Antitumor activity against human NCI-H446 cells xenografted in female NU-NU mouse model assessed as decrease in Ki67 level in tumor at 12.5 to 25 mg/kg, po administered once daily for 15 days by immunohistochemical staining based analysis; assay type: functional, organism-based; conditions: dose 12.5-25 mg/kg, time 15.0 day
[32] = molecular target: Cyclin-dependent kinase 9 (Homo sapiens) (UniProt P50750); assay: Inhibition of CDK9-related signaling in human NCI-H69 cells assessed as reduction in c-MYC expression level at 0.5 to 10 nM incubated for 24 hrs by Western blot analysis; assay type: cell-based; conditions: dose 0.5-10 nM
[33] = molecular target: Cyclin-dependent kinase 2/cyclin E1 (Homo sapiens) (UniProt P24864+P24941); conditions: dose 10.0 nM

inhibition [1]: 46%
inhibition [5]: 34%
inhibition [6]: 15%
Activity [7]: 91.2%
inhibition [8]: 33%
Activity [9]: Active
Activity [15]: Time-dependent-effect
inhibition [17]: 95%
Activity [18]: inactive
Activity [20]: inactive
Activity [21]: Active
Activity [22]: Active
inhibition [23]: 24%
inhibition [24]: 45%
inhibition [25]: Active
inhibition [26]: 56%
inhibition [28]: 38%
inhibition [29]: 52%
inhibition [30]: 55%
inhibition [32]: Active
inhibition [33]: 35%
SMILES: O=C1CCC(Nc2cccc(N3CCN(CC4CCN(CC(=O)N5CCC(NC(=O)c6n[nH]cc6NC(=O)c6c(Cl)cccc6Cl)CC5)CC4)CC3)c2)C(=O)N1 (centres undefined)
Activity (NCI-H446 [2]): Active
Activity [3]: Not active; Very Short Self-Renewal Period For Cdk9 Observed
Activity (NCI-H446 [4]): Active
Activity (NCI-H446 [10]): Dose-dependent-effect
Activity (NCI-H69 [11]): Dose-dependent-effect
Activity (NCI-H446 [12]): Dose-dependent-effect
Activity (NCI-H69 [13]): Dose-dependent-effect
inhibition (DMS-114 [14]): Active
Activity (NCI-H69 [16]): Dose-dependent-effect
inhibition (DMS-53): Active
Activity (NCI-H69 [19]): Active
inhibition (DMS-114 [27]): Active
Activity (NCI-H446 [31]): Active
